Data published in patent US11000033B2, “Ketone or oxime compound, and herbicide” (NISSAN CHEMICAL CORPORATION, priority 2014, dated 2021).

Assays:
Format in all cases: in vivo
Monochoria vaginalis = assay: Test Example 2: herbicidal activity, application during weed generation in submerged conditions (symbol C); conditions: Table 23; application herbicide amount 320 g/ha; grade 0-5 by criteria of Test Example 1
Summary of the method: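 Read-out: herbicidal effect on each species rated on a visual scale 3 weeks after treatment. Plants were raised together from seed in flooded alluvial soil (4 cm water) at 25° C. to 30° C. and treated at one to two leaves by water-surface application of diluted emulsion.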

[1] = tested on: directly sowed rice plant; assay: Test Example 3: effect on crop by foliage application, Wagner pot (symbol b); conditions: application herbicide amount 320 g/ha
Summary of the method: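 Alluvial soil in a 1/10000-are Wagner pot was flooded to a water depth of 0.1–0.5 cm. Echinochloa crus-galli var. crus-galli, Leptochloa chinensis, Cyperus difformis and rice were sown into it and grown in a greenhouse at 25–30 °C.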

Digitaria ciliaris [2] = assay: Test Example 4: herbicidal effect by soil treatment (symbol F); conditions: application herbicide amount 320 g/ha
Summary of the method: (§1)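 Seeds were sown in sterilized diluvial soil, covered with about 1.5 cm of soil, and the soil surface was sprayed with a water-diluted emulsion of the compound at a predetermined rate. Plants grew in a greenhouse at 25° C. to 30° C.; effects were scored visually 3 weeks after application.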

[3] = tested on: Echinochloa crus-galli var. crus-galli; assay: Test Example 4: herbicidal effect by soil treatment (symbol H); conditions: application herbicide amount 320 g/ha
Summary of the method: as §1

Avena fatua [4] = assay: Test Example 4: herbicidal effect by soil treatment (symbol I); conditions: application herbicide amount 320 g/ha
Summary of the method: as §1

Alopecurus myosuroides = assay: Test Example 4: herbicidal effect by soil treatment (symbol J); conditions: application herbicide amount 320 g/ha
Summary of the method: as §1

Lolium multiflorum Lam. [5] = assay: Test Example 4: herbicidal effect by soil treatment (symbol K); conditions: application herbicide amount 320 g/ha
Summary of the method: as §1

Apera spica-venti [6] = assay: Test Example 4: herbicidal effect by soil treatment (symbol L); conditions: application herbicide amount 320 g/ha
Summary of the method: as §1

rice = assay: Test Example 4: effect on crop by soil treatment (symbol b); conditions: application herbicide amount 320 g/ha
Summary of the method: (§2)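 Crop seeds, among them rice, wheat, beet and rapeseed, were sown in sterilized diluvial soil and covered with about 1.5 cm of soil. Boxes were kept in a greenhouse at 25° C. to 30° C. for plant growth.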

beet = assay: Test Example 4: effect on crop by soil treatment (symbol f); conditions: application herbicide amount 320 g/ha
Summary of the method: as §2

rapeseed [7] = assay: Test Example 4: effect on crop by soil treatment (symbol g); conditions: application herbicide amount 320 g/ha
Summary of the method: as §2

Digitaria ciliaris [8] = assay: Test Example 5: herbicidal effect by foliage application, plastic box (symbol F); conditions: 320 g/ha, 3 weeks after application
Summary of the method: (§3)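 Seeds were sown in sterilized diluvial soil, covered with about 1.5 cm of soil and grown 14 days in a greenhouse at 25° C. to 30° C. An emulsifiable formulation diluted in water to a set rate was sprayed over foliage, and injury was scored 3 weeks later.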

Avena fatua [9] = assay: Test Example 5: herbicidal effect by foliage application, plastic box (symbol I); conditions: 320 g/ha, 3 weeks after application
Summary of the method: as §3

Lolium multiflorum Lam. [10] = assay: Test Example 5: herbicidal effect by foliage application, plastic box (symbol K); conditions: 320 g/ha, 3 weeks after application
Summary of the method: as §3

Apera spica-venti [11] = assay: Test Example 5: herbicidal effect by foliage application, plastic box (symbol L); conditions: 320 g/ha, 3 weeks after application
Summary of the method: as §3

Abutilon theophrasti = assay: Test Example 5: herbicidal effect by foliage application, plastic box (symbol M); conditions: 320 g/ha, 3 weeks after application
Summary of the method: as §3

Amaranthus retroflexus = assay: Test Example 5: herbicidal effect by foliage application, plastic box (symbol N); conditions: 320 g/ha, 3 weeks after application
Summary of the method: as §3

Chenopodium album = assay: Test Example 5: herbicidal effect by foliage application, plastic box (symbol O); conditions: 320 g/ha, 3 weeks after application
Summary of the method: as §3

Veronica persica = assay: Test Example 5: herbicidal effect by foliage application, plastic box (symbol R); conditions: 320 g/ha, 3 weeks after application
Summary of the method: as §3

wheat = assay: Test Example 5: effect on crop by foliage application, plastic box (symbol e); conditions: 320 g/ha, 3 weeks after application
Summary of the method: (§4)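 Greenhouse culture at 25° C. to 30° C. followed spot-like sowing into sterilized diluvial soil, with seed covered by roughly 1.5 cm of soil.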

rapeseed [12] = assay: Test Example 5: effect on crop by foliage application, plastic box (symbol g); conditions: 320 g/ha, 3 weeks after application
Summary of the method: as §4

Stellaria media = assay: Test Example 5: herbicidal effect by foliage application, plastic box (symbol P); conditions: 320 g/ha, 3 weeks after application
Summary of the method: as §3

SMILES	Herbicidal effect grade, C: Monochoria vaginalis (Monochoria vaginalis)	effect on crop b (directly sowed rice plant), grade 0-5 [1]	F: Digitaria ciliaris, herbicidal effect (criteria of Test Example 1) (Digitaria ciliaris [8])	I: Avena fatua, herbicidal effect (criteria of Test Example 1) (Avena fatua [9])	K: Lolium multiflorum Lam., herbicidal effect (criteria of Test Example 1) (Lolium multiflorum Lam. [10])	L: Apera spica-venti, herbicidal effect (criteria of Test Example 1) (Apera spica-venti [11])	M: Abutilon theophrasti, herbicidal effect (criteria of Test Example 1) (Abutilon theophrasti)	N: Amaranthus retroflexus, herbicidal effect (criteria of Test Example 1) (Amaranthus retroflexus)	R: Veronica persica, herbicidal effect (criteria of Test Example 1) (Veronica persica)	e: wheat, effect on crop (criteria of Test Example 1) (wheat)	g: rapeseed, effect on crop (criteria of Test Example 1) (rapeseed [12])	F: Digitaria ciliaris, herbicidal effect grade (Digitaria ciliaris [2])	H: Echinochloa crus-galli var. crus-galli, herbicidal effect grade [3]	I: Avena fatua, herbicidal effect grade (Avena fatua [4])	J: Alopecurus myosuroides, herbicidal effect grade (Alopecurus myosuroides)	K: Lolium multiflorum Lam., herbicidal effect grade (Lolium multiflorum Lam. [5])	L: Apera spica-venti, herbicidal effect grade (Apera spica-venti [6])	b: directly sowed rice plant, effect on crop grade (rice)	f: beet, effect on crop grade (beet)	g: rapeseed, effect on crop grade (rapeseed [7])	other results
CON=C(C)CC1CC(OC(=O)C(C)(C)CCl)=C(c2c(C)cc(C)cc2C)C1=O (stereo not drawn) [1-016]	3 (Herbicidal ratio of 40% or higher and lower than 70%)	5 (Herbicidal ratio of 90% or more (almost completely withered))	–	–	–	–	–	–	–	–	–	–	–	–	–	–	–	–	–	–	F (Digitaria ciliaris) herbicidal effect grade (Digitaria ciliaris [2]): 5 (Herbicidal ratio of 90% or more (almost completely withered)); H (Echinochloa crus-galli var. crus-galli) herbicidal effect grade [3]: 5 (Herbicidal ratio of 90% or more (almost completely withered)); I (Avena fatua) herbicidal effect grade (Avena fatua [4]): 5 (Herbicidal ratio of 90% or more (almost completely withered)); J (Alopecurus myosuroides) herbicidal effect grade (Alopecurus myosuroides): 5 (Herbicidal ratio of 90% or more (almost completely withered)); K (Lolium multiflorum Lam.) herbicidal effect grade (Lolium multiflorum Lam. [5]): 5 (Herbicidal ratio of 90% or more (almost completely withered)); L (Apera spica-venti) herbicidal effect grade (Apera spica-venti [6]): 5 (Herbicidal ratio of 90% or more (almost completely withered)); b (directly sowed rice plant) effect on crop grade (rice): 5 (Herbicidal ratio of 90% or more (almost completely withered)); f (beet) effect on crop grade (beet): 0 (Herbicidal ratio of 5% or lower (almost no effect)); g (rapeseed) effect on crop grade (rapeseed [7]): 4 (Herbicidal ratio of 70% or higher and lower than 90%); F: Digitaria ciliaris, herbicidal effect grade (Digitaria ciliaris [8]): 5 (Herbicidal ratio of 90% or more (almost completely withered)); I: Avena fatua, herbicidal effect grade (Avena fatua [9]): 5 (Herbicidal ratio of 90% or more (almost completely withered)); K: Lolium multiflorum Lam., herbicidal effect grade (Lolium multiflorum Lam. [10]): 5 (Herbicidal ratio of 90% or more (almost completely withered)); L: Apera spica-venti, herbicidal effect grade (Apera spica-venti [11]): 5 (Herbicidal ratio of 90% or more (almost completely withered)); M: Abutilon theophrasti, herbicidal effect grade (Abutilon theophrasti): 4 (Herbicidal ratio of 70% or higher and lower than 90%); N: Amaranthus retroflexus, herbicidal effect grade (Amaranthus retroflexus): 4 (Herbicidal ratio of 70% or higher and lower than 90%); O: Chenopodium album, herbicidal effect grade (Chenopodium album): 2 (Herbicidal ratio of 20% or higher and lower than 40%); R: Veronica persica, herbicidal effect grade (Veronica persica): 4 (Herbicidal ratio of 70% or higher and lower than 90%); e: wheat, effect on crop grade (wheat): 5 (Herbicidal ratio of 90% or more (almost completely withered)); g: rapeseed, effect on crop grade (rapeseed [12]): 4 (Herbicidal ratio of 70% or higher and lower than 90%)
CCc1cc(Br)cc(C)c1C1=C(O)CC(C(C(C)=O)C(=O)OC)C1=O (stereo not drawn) [7-001]	0 (Herbicidal ratio of 5% or lower (almost no effect))	2 (Herbicidal ratio of 20% or higher and lower than 40%)	5 (Herbicidal ratio of 90% or more (almost completely withered))	3 (Herbicidal ratio of 40% or higher and lower than 70%)	5 (Herbicidal ratio of 90% or more (almost completely withered))	3 (Herbicidal ratio of 40% or higher and lower than 70%)	0 (Herbicidal ratio of 5% or lower (almost no effect))	0 (Herbicidal ratio of 5% or lower (almost no effect))	0 (Herbicidal ratio of 5% or lower (almost no effect))	0 (Herbicidal ratio of 5% or lower (almost no effect))	0 (Herbicidal ratio of 5% or lower (almost no effect))	–	–	–	–	–	–	–	–	–	Herbicidal effect grade, F: Digitaria ciliaris (Digitaria ciliaris [2]): 5 (Herbicidal ratio of 90% or more (almost completely withered)); Herbicidal effect grade, H: Echinochloa crus-galli var. crus-galli [3]: 4 (Herbicidal ratio of 70% or higher and lower than 90%); Herbicidal effect grade, I: Avena fatua (Avena fatua [4]): 3 (Herbicidal ratio of 40% or higher and lower than 70%); Herbicidal effect grade, J: Alopecurus myosuroides (Alopecurus myosuroides): 0 (Herbicidal ratio of 5% or lower (almost no effect)); Herbicidal effect grade, K: Lolium multiflorum Lam. (Lolium multiflorum Lam. [5]): 5 (Herbicidal ratio of 90% or more (almost completely withered)); Herbicidal effect grade, L: Apera spica-venti (Apera spica-venti [6]): 0 (Herbicidal ratio of 5% or lower (almost no effect)); Effect on crop grade, b: directly sowed rice plant (rice): 4 (Herbicidal ratio of 70% or higher and lower than 90%); Effect on crop grade, f: beet (beet): 0 (Herbicidal ratio of 5% or lower (almost no effect)); Effect on crop grade, g: rapeseed (rapeseed [7]): 0 (Herbicidal ratio of 5% or lower (almost no effect))
CCc1cc(-c2ccc(Cl)cc2)cc(C)c1C1=C(O)CC(CC(C)=NOC)C1=O (stereo not drawn) [6-066]	0 (Herbicidal ratio of 5% or lower (almost no effect))	5 (Herbicidal ratio of 90% or more (almost completely withered))	5 (Herbicidal ratio of 90% or more (almost completely withered))	5 (Herbicidal ratio of 90% or more (almost completely withered))	5 (Herbicidal ratio of 90% or more (almost completely withered))	5 (Herbicidal ratio of 90% or more (almost completely withered))	3 (Herbicidal ratio of 40% or higher and lower than 70%)	3 (Herbicidal ratio of 40% or higher and lower than 70%)	–	5 (Herbicidal ratio of 90% or more (almost completely withered))	–	5 (Herbicidal ratio of 90% or more (almost completely withered))	5 (Herbicidal ratio of 90% or more (almost completely withered))	5 (Herbicidal ratio of 90% or more (almost completely withered))	5 (Herbicidal ratio of 90% or more (almost completely withered))	5 (Herbicidal ratio of 90% or more (almost completely withered))	5 (Herbicidal ratio of 90% or more (almost completely withered))	5 (Herbicidal ratio of 90% or more (almost completely withered))	0 (Herbicidal ratio of 5% or lower (almost no effect))	2 (Herbicidal ratio of 20% or higher and lower than 40%)	O: Chenopodium album, herbicidal effect (criteria of Test Example 1) (Chenopodium album): 1 (Herbicidal ratio of 5% or higher and lower than 20%); P: Stellaria media, herbicidal effect (criteria of Test Example 1) (Stellaria media): 3 (Herbicidal ratio of 40% or higher and lower than 70%)
CCc1cc(-c2ccc(Cl)cc2)cc(C)c1C1=C(OC(=O)N2CCOCC2)CC(CC(C)=NOC)C1=O (mixture of isomers) [6-064]	0 (Herbicidal ratio of 5% or lower (almost no effect))	4 (Herbicidal ratio of 70% or higher and lower than 90%)	5 (Herbicidal ratio of 90% or more (almost completely withered))	5 (Herbicidal ratio of 90% or more (almost completely withered))	5 (Herbicidal ratio of 90% or more (almost completely withered))	5 (Herbicidal ratio of 90% or more (almost completely withered))	4 (Herbicidal ratio of 70% or higher and lower than 90%)	–	4 (Herbicidal ratio of 70% or higher and lower than 90%)	5 (Herbicidal ratio of 90% or more (almost completely withered))	3 (Herbicidal ratio of 40% or higher and lower than 70%)	5 (Herbicidal ratio of 90% or more (almost completely withered))	5 (Herbicidal ratio of 90% or more (almost completely withered))	0 (Herbicidal ratio of 5% or lower (almost no effect))	4 (Herbicidal ratio of 70% or higher and lower than 90%)	0 (Herbicidal ratio of 5% or lower (almost no effect))	5 (Herbicidal ratio of 90% or more (almost completely withered))	0 (Herbicidal ratio of 5% or lower (almost no effect))	0 (Herbicidal ratio of 5% or lower (almost no effect))	0 (Herbicidal ratio of 5% or lower (almost no effect))	P: Stellaria media, herbicidal effect (criteria of Test Example 1) (Stellaria media): 0 (Herbicidal ratio of 5% or lower (almost no effect))
